Columns and labels:
[1] = Drug metabolism in Sprague-Dawley rat feces assessed as oxygenated metabolite M+16(1) formation at 10 mg/kg, po by high-resolution mass spectrometry; assay type: ADME, organism-based; conditions: in vivo
[2] = Apparent half life in Swiss mouse at 27 mg/kg, po measured up to 24 hrs by LC-MS analysis; conditions: in vivo, read-out: t1/2(app) (converted)
[3] = Clearance in Swiss mouse plasma at 2.7 mg/kg, iv measured up to 24 hrs by LC-MS analysis; assay type: ADME, organism-based
[4] = Volume of distribution at steady state in Swiss mouse at 2.7 mg/kg, iv measured up to 24 hrs by LC-MS analysis; assay type: ADME, organism-based; conditions: in vivo, read-out: Vdss
[5] = Drug metabolism in Sprague-Dawley rat feces assessed as N-methyl-2-(3'-propoxy-5,5'-bi(1,2,4-triazin)-3-yloxy)ethanamine formation at 10 mg/kg, po by high-resolution mass spectrometry; assay type: ADME, organism-based; conditions: in vivo
[6] = Cmax in Swiss mouse plasma at 27 mg/kg, po measured up to 24 hrs by LC-MS analysis; assay type: ADME, organism-based; set-up: route oral, dose 27 mg/kg, time <=24
[7] = Oral availability in Sprague-Dawley rat at 10 mg/kg measured up to 24 hrs by LC-MS analysis; assay type: ADME, organism-based; conditions: in vivo
[8] = Drug metabolism in rat liver microsomes assessed as oxygenated metabolite M+16(2) formation by LC-MS/MS(CID) analysis; assay type: ADME, Microsome
[9] = Drug metabolism in Sprague-Dawley rat feces assessed as oxygenated metabolite M+16(1) formation at 3 mg/kg, iv by high-resolution mass spectrometry; assay type: ADME, organism-based; conditions: in vivo
[10] = Drug metabolism in Sprague-Dawley rat feces assessed as oxygenated metabolite N-methyl-2-(3'-propoxy-5,5'-bi(1,2,4-triazin)-3-yloxy)ethanamine oxide formation at 3 mg/kg, iv by high-resolution mass spectrometry; assay type: ADME, organism-based; conditions: in vivo
[11] = Drug metabolism in human liver microsomes assessed as formation of cleavage product M-69 by LC-MS/MS(CID) analysis; assay type: ADME, Microsome
[12] = Cmax in Sprague-Dawley rat plasma at 10 mg/kg, po administered via gavage measured at 0.25 to 2.5 hrs by LC-MS analysis; assay type: ADME, organism-based; set-up: route oral, time upper 2.5 hrs, dose 10 mg/kg, time lower 0.25 hrs
[13] = Intrinsic clearance in human liver microsomes assessed per mg of protein in presence of NADPH by UPLC-MS analysis; assay type: ADME, Microsome; conditions: read-out: CLH
[14] = Drug metabolism in human hepatocytes assessed as oxygenated metabolite M+16(1) formation by LC-MS/MS(CID) analysis; assay type: ADME, cell-based, Hepatocyte
Cytochrome P450 2C19 = Cytochrome P450 2C19 (Homo sapiens, UniProt P33261); assay: Inhibition of CYP2C19 in human liver microsomes assessed as reduction in […] activity by . high-pressure liquid chromatography-tandem mass spectrometry; assay type: ADME
Sequence of Cytochrome P450 2C19 (P33261 whole entry): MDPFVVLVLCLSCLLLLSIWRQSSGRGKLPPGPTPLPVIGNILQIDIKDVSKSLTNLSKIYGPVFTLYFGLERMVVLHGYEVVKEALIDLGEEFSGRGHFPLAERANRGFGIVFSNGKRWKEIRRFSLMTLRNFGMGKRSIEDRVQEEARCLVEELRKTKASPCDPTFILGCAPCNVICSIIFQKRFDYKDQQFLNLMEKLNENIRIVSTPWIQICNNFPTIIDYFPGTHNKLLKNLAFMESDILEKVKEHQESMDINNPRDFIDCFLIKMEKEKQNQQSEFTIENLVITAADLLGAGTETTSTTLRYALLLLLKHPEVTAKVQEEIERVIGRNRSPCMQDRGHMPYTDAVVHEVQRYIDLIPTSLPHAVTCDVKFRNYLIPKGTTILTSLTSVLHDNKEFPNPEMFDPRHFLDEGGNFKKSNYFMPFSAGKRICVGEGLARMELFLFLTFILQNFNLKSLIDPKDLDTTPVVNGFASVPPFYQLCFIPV

[15] = Drug metabolism in human liver microsomes assessed as formation of cleavage product M-69 in presence of NADPH by LC-MS/MS(CID) analysis; assay type: ADME, Microsome
[16] = Drug metabolism in Sprague-Dawley rat feces assessed as oxygenated metabolite N-methyl-2-(3'-propoxy-5,5'-bi(1,2,4-triazin)-3-yloxy)ethanamine oxide formation at 10 mg/kg, po by high-resolution mass spectrometry; assay type: ADME, organism-based; conditions: in vivo
[17] = Intrinsic clearance in rat hepatocytes assessed per million cells by UPLC-MS analysis; assay type: ADME, cell-based, Hepatocyte; conditions: read-out: CLH
[18] = Volume of distribution at steady state in Sprague-Dawley rat plasma at 3 mg/kg, iv measured up to 24 hrs by LC-MS analysis; assay type: ADME, organism-based; conditions: read-out: Vdss
[19] = Drug metabolism in human liver microsomes assessed as oxygenated metabolite M+16(1) formation by LC-MS/MS(CID) analysis; assay type: ADME, Microsome
[20] = Drug metabolism in mouse liver microsomes assessed as oxygenated metabolite N-methyl-2-(3'-propoxy-5,5'-bi(1,2,4-triazin)-3-yloxy)ethanamine oxide formation by LC-MS/MS(CID) analysis; assay type: ADME, Microsome
[21] = Apparent oral availability in Sprague-Dawley rat at 10 mg/kg measured up to 24 hrs by LC-MS analysis; assay type: ADME, organism-based; conditions: in vivo, read-out: Fapp
[22] = Drug metabolism in Sprague-Dawley rat urine assessed as oxygenated metabolite M+16(2) formation at 10 mg/kg, po by high-resolution mass spectrometry; assay type: ADME, organism-based; conditions: in vivo
[23] = Drug metabolism in rat liver microsomes assessed as 3'-propoxy-5,5'-bi(1,2,4-triazin)-3-ol formation by LC-MS/MS(CID) analysis; assay type: ADME, Microsome
[24] = Kinetic solubility of compound at pH 6.5 by nephelometry; assay type: physicochemical; conditions: buffer, read-out: Kinetic_solubility
[25] = Intrinsic clearance in mouse liver microsomes in presence of NADPH by UPLC-MS analysis; assay type: ADME, Microsome
[26] = Drug metabolism in Sprague-Dawley rat feces assessed as M-32 metabolite formation at 3 mg/kg, iv by high-resolution mass spectrometry; assay type: ADME, organism-based; conditions: in vivo
[27] = Drug metabolism in human hepatocytes assessed as 3'-propoxy-5,5'-bi(1,2,4-triazin)-3-ol formation by LC-MS/MS(CID) analysis; assay type: ADME, cell-based, Hepatocyte
[28] = Cmax in Swiss mouse plasma at 2.8 mg/kg, po measured up to 24 hrs by LC-MS analysis; assay type: ADME, organism-based; set-up: route oral, dose 2.8 mg/kg, time <=24
[29] = Toxicity in Swiss mouse assessed as induction of poor posture at 32 mg/kg/day administered for 4 days; assay type: organism-based; conditions: in vivo, 96 h, time 4 day
[30] = Apparent permeability across apical to basolateral side in human Caco2 cells measured over 120 mins by LC-MS analysis; assay type: ADME, cell-based; conditions: Caco-2
[31] = Drug metabolism in human hepatocytes assessed as N-methyl-2-(3'-propoxy-5,5'-bi(1,2,4-triazin)-3-yloxy)ethanamine formation by LC-MS/MS(CID) analysis; assay type: ADME, cell-based, Hepatocyte
Plasmodium falciparum [32] = assay: Antiplasmodial activity against Plasmodium falciparum NF54 by 3H-incorporation growth inhibition assay; assay type: functional, organism-based
[33] = Drug metabolism in rat hepatocytes assessed as oxygenated metabolite N-methyl-2-(3'-propoxy-5,5'-bi(1,2,4-triazin)-3-yloxy)ethanamine oxide formation by LC-MS/MS(CID) analysis; assay type: ADME, cell-based, Hepatocyte
[34] = Drug metabolism in human hepatocytes assessed as oxygenated metabolite N-methyl-2-(3'-propoxy-5,5'-bi(1,2,4-triazin)-3-yloxy)ethanamine oxide formation by LC-MS/MS(CID) analysis; assay type: ADME, cell-based, Hepatocyte
[35] = Efflux ratio of apparent permeability in human Caco2 cells measured over 120 mins by LC-MS analysis; assay type: ADME, cell-based; conditions: Caco-2
[36] = Drug metabolism in human liver microsomes assessed as oxygenated metabolite M+16(2) formation by LC-MS/MS(CID) analysis; assay type: ADME, Microsome
[37] = Drug recovery in bile cannulated Sprague-Dawley rat bile at 3 mg/kg, iv measured up to 4 hrs by LC-MS analysis; assay type: ADME, organism-based; conditions: read-out: Drug recovery
[38] = Drug metabolism in Sprague-Dawley rat urine assessed as oxygenated metabolite M+16(1) formation at 10 mg/kg, po by high-resolution mass spectrometry; assay type: ADME, organism-based; conditions: in vivo
[39] = Drug metabolism in mouse hepatocytes assessed as glucuronides/sulfates metabolite formation by LC-MS/MS(CID) analysis; assay type: ADME, cell-based, Hepatocyte
Plasmodium falciparum [40] = assay: Antiplasmodial activity against Plasmodium falciparum K1 by 3H-incorporation growth inhibition assay; assay type: functional, organism-based; conditions: pooled result: one value given for 11 cell lines, strains, targets or settings
[41] = Drug metabolism in Sprague-Dawley rat feces assessed as M-32 metabolite formation at 10 mg/kg, po by high-resolution mass spectrometry; assay type: ADME, organism-based; conditions: in vivo

- Drug metabolism [1]: Metabolite_Detected
- half-life [2]: 3 h
- clearance [3]: 406 mL/min/kg
- Vd [4]: 3.4 L/kg
- Drug metabolism [5]: Metabolite_Detected
- Cmax [6]: 82 nM
- bioavailability [7]: 7.49%
- Drug metabolism [8]: Metabolite_Detected
- Drug metabolism [9]: Metabolite_Detected
- Drug metabolism [10]: Metabolite_Detected
- Drug metabolism [11]: Metabolite_Detected
- Cmax [12]: 89.4 nM
- microsomal CLint [13]: 8 µL/min/mg
- Drug metabolism [14]: Metabolite_Detected
- IC50 (Cytochrome P450 2C19): > 20000 nM
- Drug metabolism [15]: Metabolite_Detected
- Drug metabolism [16]: Metabolite_Detected
- hepatocyte CLint [17]: 10 µL/min/1e6 cells
- Vd [18]: 2.8 L/kg
- Drug metabolism [19]: Metabolite_Detected
- Drug metabolism [20]: Metabolite_Detected
- bioavailability [21]: 5%
- Drug metabolism [22]: Metabolite_Detected
- Drug metabolism [23]: Metabolite_Notdetected
- solubility kinetic [24]: > 100 µg/mL
- microsomal CLint [25]: 42 µL/min/mg
- Drug metabolism [26]: Metabolite_Detected
- Drug metabolism [27]: Metabolite_Notdetected
- Cmax [28]: 16.8 nM
- Papp A→B at 2 h [30]: 40 ×10⁻⁶ cm/s
- Drug metabolism [31]: Metabolite_Notdetected
- Drug metabolism [33]: Metabolite_Detected
- Drug metabolism [34]: Metabolite_Detected
- efflux ratio at 2 h [35]: 1.1
- Drug metabolism [36]: Metabolite_Detected
- dose excreted at 4 h [37]: 0.1%
- Drug metabolism [38]: Metabolite_Detected
- Drug metabolism [39]: Metabolite_Notdetected
- Drug metabolism [41]: Metabolite_Detected
SMILES: CCCOc1nncc(-c2cnnc(OCCN(C)C)n2)n1
- Activity [29]: Non-Toxic
- IC50 (Plasmodium falciparum [32]): 21 nM
- IC50 (Plasmodium falciparum [40]): 23 nM

— ChEMBL document CHEMBL4808169, “Discovery of Potent and Fast-Acting Antimalarial Bis-1,2,4-triazines” (J Med Chem, 2021)
